Read-outs that look alike come from different tables or passages of the source.
Experiments:
dopaminergic receptor = test: Anti-apomorphine activity in mouse; settings: for ED50: Mus musculus, po, 1 h, read-out: Anti-apomorphine activity (ED50 mg/kg) (A); for (B)/(A): ratio of anti-epinephrine ED50 (B) to anti-apomorphine ED50 (A)
α-blocking activity = test: Anti-epinephrine lethal activity in mouse; assay type: in vivo; settings: read-out: Anti-epinephrine activity (ED50 mg/kg) (B)
[1] = mouse, oral, 1 hour before lethal dose (1.5 mg/kg) of epinephrine intravenously, survival at 4 hours

SMILES	ED50 (dopaminergic receptor)	(B)/(A) (dopaminergic receptor)	ED50 (α-blocking activity; Mus musculus, po, 4 h)	ED50 (α-blocking activity; [1])
O=C1CCc2ccc(OCCCCN3CCN(c4cccc(Cl)c4Cl)CC3)cc2N1 [Test compound 1, 7-{4-[4-(2,3-dichlorophenyl)-1-piperazinyl]butoxy}-3,4-dihydrocarbostyril]	0.18 mg/kg	> 711	> 128 mg/kg	
Cc1c(N2CCN(CCCCOc3ccc4c(c3)NC(=O)CC4)CC2)cccc1[N+](=O)[O-] [Test compound 2]	0.3 mg/kg	> 426.7		> 128 mg/kg
Cc1cccc(N2CCN(CCCCOc3ccc4c(c3)NC(=O)CC4)CC2)c1Cl [Test compound 3]	0.4 mg/kg	> 160		> 64 mg/kg
Cc1cccc(N2CCN(CCCCOc3ccc4c(c3)NC(=O)CC4)CC2)c1Br [Test compound 4]	0.4 mg/kg	> 160		> 64 mg/kg
O=C1CCc2ccc(OCCCCN3CCN(c4cc(Cl)cc(Cl)c4)CC3)cc2N1 [Test compound 5]	0.5 mg/kg	> 256		> 128 mg/kg
O=C1CCc2ccc(OCCCCN3CCN(c4cc(Cl)cc(Cl)c4Cl)CC3)cc2N1 [Test compound 7]	0.4 mg/kg	> 320		> 128 mg/kg
COc1ccccc1N1CCN(CCCCOc2ccc3c(c2)NC(=O)CC3)CC1 [Test compound 8]	0.2 mg/kg	12.5		2.5 mg/kg
O=C1CCc2ccc(OCCCCN3CCN(c4cccc(Br)c4Br)CC3)cc2N1 [Test compound 9]	0.6 mg/kg	> 426.7		> 256 mg/kg
O=c1ccc2ccc(OCCCCN3CCN(c4cccc(Cl)c4Cl)CC3)cc2[nH]1 [Test compound 10]	0.36 mg/kg	> 355		> 128 mg/kg
CCOc1ccccc1N1CCN(CCCCOc2ccc3ccc(=O)[nH]c3c2)CC1 [Test compound 11]	0.12 mg/kg	31.6		3.8 mg/kg
